Test results reported in patent publication US11352339B2 (MISSION THERAPEUTICS LIMITED, priority 2016, dated 2022).

target: USP30 (Homo sapiens (Human), UniProt Q70CQ3); assay: USP30 Biochemical IC50 Assay; conditions: fluorescence polarisation, TAMRA labelled peptide linked to ubiquitin; 30 min pre-incubation, read after 2 h; read-out: IC50 range
Procedure: Reactions were performed in duplicate in black 384 well plates (small volume, Greiner 784076) in a final reaction volume of 21 μl. Either 1 μl of 50% DMSO or diluted compound was added to the plate. […] Enzyme and compound were incubated for 30 min at room temp. Reactions were initiated by the addition of 50 nM of TAMRA labelled peptide linked to ubiquitin via an iso-peptide bond as fluorescence polarisation substrate. Reactions were read immediately after addition of substrate and following a 2 h incubation at room temperature. Readings were performed on a Pherastar Plus (BMG Labtech). λ Excitation 540 nm; λ Emission 590 nm.

Sequence of USP30 (Q70CQ3 57-517): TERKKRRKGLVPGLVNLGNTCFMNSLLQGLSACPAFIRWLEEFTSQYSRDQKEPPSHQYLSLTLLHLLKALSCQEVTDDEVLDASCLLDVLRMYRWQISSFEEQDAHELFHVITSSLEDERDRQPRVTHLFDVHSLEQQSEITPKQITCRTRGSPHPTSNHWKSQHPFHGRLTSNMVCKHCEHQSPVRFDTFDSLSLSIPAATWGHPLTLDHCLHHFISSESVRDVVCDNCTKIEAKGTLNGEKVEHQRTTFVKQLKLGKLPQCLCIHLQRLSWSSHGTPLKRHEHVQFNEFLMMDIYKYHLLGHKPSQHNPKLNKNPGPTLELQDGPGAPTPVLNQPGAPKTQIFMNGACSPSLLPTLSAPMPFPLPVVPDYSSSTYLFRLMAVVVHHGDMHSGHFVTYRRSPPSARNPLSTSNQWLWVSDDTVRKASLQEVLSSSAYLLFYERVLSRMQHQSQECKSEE

| Compound | IC50 [nM] |
| --- | --- |
| COC(=O)c1ccccc1-c1cccc(-c2nc(C3CCCN3C#N)no2)c1 (stereo not drawn) [Example 156, Methyl 3′-(3-(1-cyanopyrrolidin-2-yl)-1,2,4-oxadiazol-5-yl)-[1,1′-biphenyl]-2-carboxylate] | 100 to 1000 |
| Cc1cncc(-c2cccc(-c3nc(C4CCCN4C#N)no3)c2)c1 (stereo not drawn) [Example 164, 2-(5-(3-(5-Methylpyridin-3-yl)phenyl)-1,2,4-oxadiazol-3-yl)pyrrolidine-1-carbonitrile] | 1000 to 10000 |
| N#Cc1cc(-c2cc(-c3nc([C@@H]4CCCN4C#N)no3)ccn2)ccn1 [Example 181, (S)-4-(3-(1-Cyanopyrrolidin-2-yl)-1,2,4-oxadiazol-5-yl)-[2,4′-bipyridine]-2 carbonitrile] | < 100 |
| C[C@H]1CN(C#N)C[C@@H]1c1nc2cc(-c3ccccc3)cnc2[nH]1 (single isomer, unassigned) [Example 103, Trans-3-methyl-4-(6-phenyl-3H-imidazo[4,5-b]pyridin-2-yl)pyrrolidine-1-carbonitrile] | 100 to 1000 |
| N#CN1CCC(c2cc(-c3cccc(-c4ccc(Cl)cc4)c3)n[nH]2)C1 (stereo not drawn) [Example 29, 3-(3-(4′-Chloro-[1,1′-biphenyl]-3-yl)-1H-pyrazol-5-yl)pyrrolidine-1-carbonitrile] | 100 to 1000 |
| N#CN1CCCC1c1noc(-c2ccnc(-c3ccc(OC(F)(F)F)cc3)c2)n1 (stereo not drawn) [Example 169, 2-(5-(2-(4-(Trifluoromethoxy)phenyl)-pyridin-4-yl)-1,2,4-oxadiazol-3-yl)pyrrolidine-1-carbonitrile] | 1000 to 10000 |
| N#Cc1cccc(-c2ccc3nc([C@@H]4CCCN4C#N)oc3c2)c1 [Example 128, (S)-2-(6-(3-Cyanophenyl)benzo[d]oxazol-2-yl)pyrrolidine-1-carbonitrile] | 100 to 1000 |
| N#Cc1cccc(-c2cc(-c3nc(C4CCCN4C#N)no3)ncn2)c1 (stereo not drawn) [Example 189, 2-(5-(6-(3-Cyanophenyl)pyrimidin-4-yl)-1,2,4-oxadiazol-3-yl)pyrrolidine-1-carbonitrile] | 100 to 1000 |
| CNC(=O)c1cccc(-c2cnc3[nH]c(C4CCN(C#N)C4)nc3c2)c1 (single isomer, unassigned) [Example 93, 3-(2-(1-Cyanopyrrolidin-3-yl)-3H-imidazo[4,5-b]pyridin-6-yl)-N-methylbenzamide] | 100 to 1000 |
| COc1ccc(C#N)cc1-c1cccc(-c2nc(C3CCCN3C#N)no2)c1 (stereo not drawn) [Example 146, 2-(5-(5′-Cyano-2′-methoxy-[1,1′-biphenyl]-3-yl)-1,2,4-oxadiazol-3-yl)pyrrolidine-1-carbonitrile] | 100 to 1000 |
| CO[C@@H]1CCN(c2ccc(-c3nc(C4CCN(C#N)C4)no3)cc2)C1 (stereo partly drawn) [Example 62, 3-(5-(4-((R)-3-Methoxypyrrolidin-1-yl)phenyl)-1,2,4-oxadiazol-3-yl)pyrrolidine-1-carbonitrile] | 1000 to 10000 |
| N#CN1CCC(c2cc(-c3ccc(-c4ncccn4)cn3)n[nH]2)C1 (stereo not drawn) [Example 195, 3-(3-(5-(Pyrimidin-2-yl)pyridin-2-yl)-1H-pyrazol-5-yl)pyrrolidine-1-carbonitrile] | < 100 |
| N#CN1CC[C@@H](c2noc(-c3cc(-c4ccccc4)ccn3)n2)C1 [Example 63, (R)-3-(5-(4-Phenylpyridin-2-yl)-1,2,4-oxadiazol-3-yl)pyrrolidine-1-carbonitrile] | 100 to 1000 |
| N#Cc1cccc(-c2ccc3oc([C@@H]4CCCN4C#N)nc3c2)c1 [Example 126, (S)-2-(5-(3-Cyanophenyl)benzo[d]oxazol-2-yl)pyrrolidine-1-carbonitrile] | 100 to 1000 |
| N#CN1CCC(c2cc(-c3ccnc(-c4cccnc4)c3)n[nH]2)C1 (stereo not drawn) [Example 47, 3-(3-([2,3′-Bipyridin]-4-yl)-1H-pyrazol-5-yl)pyrrolidine-1-carbonitrile] | 100 to 1000 |
| N#CN1CC[C@@H](c2noc(C3CCN(c4ncccn4)CC3)n2)C1 [Example 64, (R)-3-(5-(1-(Pyrimidin-2-yl)piperidin-4-yl)-1,2,4-oxadiazol-3-yl)pyrrolidine-1-carbonitrile] | 1000 to 10000 |
| N#Cc1cc(-c2cncc(-c3nc([C@@H]4CCCN4C#N)no3)n2)ccn1 [Example 203, (S)-4-(6-(3-(1-Cyanopyrrolidin-2-yl)-1,2,4-oxadiazol-5-yl)pyrazin-2-yl)picolinonitrile] | < 100 |
| N#CN1CCC(c2nnc(-c3ccc4nc[nH]c4c3)[nH]2)C1 (stereo not drawn) [Example 107, 3-(5-(1H-Benzo[d]imidazol-6-yl)-4H-1,2,4-triazol-3-yl)pyrrolidine-1-carbonitrile] | 1000 to 10000 |
| N#CN1CCC(c2nnc(-c3ccccn3)[nH]2)C1 (stereo not drawn) [Example 105, 3-(5-(Pyridin-2-yl)-4H-1,2,4-triazol-3-yl)pyrrolidine-1-carbonitrile] | 1000 to 10000 |
| N#CN1CCC(c2cc(-c3cccc(C(N)=O)c3)n[nH]2)C1 (stereo not drawn) [Example 6, 3-(5-(1-Cyanopyrrolidin-3-yl)-1H-pyrazol-3-yl)benzamide] | 1000 to 10000 |
| COc1cc(-c2nc(C3CCN(C#N)C3)no2)nc2ccccc12 (stereo not drawn) [Example 58, 3-(5-(4-Methoxyquinolin-2-yl)-1,2,4-oxadiazol-3-yl)pyrrolidine-1-carbonitrile] | 1000 to 10000 |

| Compound | IC50 [nM] |
| --- | --- |
| CC[C@@H]1CN(C#N)C[C@H]1c1cc(-c2cccc(-c3ccccc3)c2)n[nH]1 (single isomer, unassigned) [Example 45, Trans-3-(3-([1,1′-biphenyl]-3-yl)-1H-pyrazol-5-yl)-4-ethylpyrrolidine-1-carbonitrile] | 100 to 1000 |
| Cn1ncc2cc(-c3cccc(-c4nc(C5CCCN5C#N)no4)c3)ccc21 (stereo not drawn) [Example 151] | 100 to 1000 |
| N#CN1CCC(c2nnc(-c3ccc4nccn4c3)[nH]2)C1 (stereo not drawn) [Example 108, 3-(5-(Imidazo[1,2-a]pyridin-6-yl)-4H-1,2,4-triazol-3-yl)pyrrolidine-1-carbonitrile] | 1000 to 10000 |
| N#CN1CCC(c2noc(C3CCN(c4ccccc4)C3)n2)C1 (stereo not drawn) [Example 69, 3-(5-(1-Phenylpyrrolidin-3-yl)-1,2,4-oxadiazol-3-yl)pyrrolidine-1-carbonitrile] | 100 to 1000 |
| N#CN1CCC(c2nc3ccc(-c4ccccc4)nc3[nH]2)C1 (stereo not drawn) [Example 97, 3-(5-Phenyl-3H-imidazo[4,5-b]pyridin-2-yl)pyrrolidine-1-carbonitrile] | 1000 to 10000 |
| CC(=O)Nc1ccc(-c2cc(C3CCN(C#N)C3)[nH]n2)cc1 (stereo not drawn) [Example 9, N-(4-(5-(1-Cyanopyrrolidin-3-yl)-1H-pyrazol-3-yl)phenyl)acetamide] | 1000 to 10000 |
| N#Cc1cccc(-c2ccc3oc([C@@H]4CCCN4C#N)nc3c2)n1 [Example 127, (S)-6-(2-(1-Cyanopyrrolidin-2-yl)benzo[d]oxazol-5-yl)picolinonitrile] | 1000 to 10000 |
| N#CN1CCC(c2cc(-c3cccc(-c4ccncc4)c3)n[nH]2)C1 (stereo not drawn) [Example 28, 3-(3-(3-(Pyridin-4-yl)phenyl)-1H-pyrazol-5-yl)pyrrolidine-1-carbonitrile] | 100 to 1000 |
| N#CN1CCC(c2cc(-c3ccc4ccccc4c3)n[nH]2)C1 (stereo not drawn) [Example 18, 3-(3-(Naphthalen-2-yl)-1H-pyrazol-5-yl)pyrrolidine-1-carbonitrile] | 100 to 1000 |
| Cc1nc2nc(C3CCN(C#N)C3)[nH]c2cc1-c1ccccc1 (stereo not drawn) [Example 99, 3-(5-Methyl-6-phenyl-3H-imidazo[4,5-b]pyridin-2-yl)pyrrolidine-1-carbonitrile] | 100 to 1000 |
| N#CN1CCC(c2cc(-c3ccc(C(N)=O)cc3)n[nH]2)C1 (stereo not drawn) [Example 4, 4-(5-(1-Cyanopyrrolidin-3-yl)-1H-pyrazol-3-yl)benzamide] | 1000 to 10000 |
| N#CN1CCCC1c1noc(-c2cccc(-c3ccoc3)c2)n1 (stereo not drawn) [Example 160, 2-(5-(3-(Furan-3-yl)phenyl)-1,2,4-oxadiazol-3-yl)pyrrolidine-1-carbonitrile] | 100 to 1000 |
| Cn1c(C2CCN(C#N)C2)nc2cc(-c3ccccc3)cnc21 (stereo not drawn) [Example 101, 3-(3-Methyl-6-phenyl-3H-imidazo[4,5-b]pyridin-2-yl)pyrrolidine-1-carbonitrile] | 100 to 1000 |
| N#Cc1ccc2ccc(-c3nc([C@@H]4CCCN4C#N)no3)cc2c1 [Example 178, (S)-2-(5-(7-Cyanonaphthalen-2-yl)-1,2,4-oxadiazol-3-yl)pyrrolidine-1-carbonitrile] | 100 to 1000 |
| N#CN1CCCC1c1noc(-c2cccc(-c3ccc([N+](=O)[O-])cc3)c2)n1 (stereo not drawn) [Example 157, 2-(5-(4′-Nitro-[1,1′-biphenyl]-3-yl)-1,2,4-oxadiazol-3-yl)pyrrolidine-1-carbonitrile] | < 100 |
| N#CN1CCC(c2noc(-c3ccc4ncsc4c3)n2)C1 (stereo not drawn) [Example 54, 3-(5-(Benzo[d]thiazol-6-yl)-1,2,4-oxadiazol-3-yl)pyrrolidine-1-carbonitrile] | 100 to 1000 |
| N#CN1CCC(c2noc(-c3ccc(Br)cc3)n2)C1 (stereo not drawn) [Example 60, 3-(5-(4-Bromophenyl)-1,2,4-oxadiazol-3-yl)pyrrolidine-1-carbonitrile] | 1000 to 10000 |
| N#CN1CCC(c2cc(-c3cccc(-c4ccccc4)n3)[nH]n2)C1 (single isomer, unassigned) [Example 42, 3-(5-(6-Phenylpyridin-2-yl)-1H-pyrazol-3-yl)pyrrolidine-1-carbonitrile] | 100 to 1000 |
| N#CN1CCCC1c1noc(-c2cccc(-c3ccccc3)c2)n1 (stereo not drawn) [Example 68, 2-(5-([1,1′-Biphenyl]-3-yl)-1,2,4-oxadiazol-3-yl)pyrrolidine-1-carbonitrile] | 100 to 1000 |
| CC[C@@H]1CN(C#N)C[C@H]1c1cc(-c2cccc(-c3ccccc3)c2)n[nH]1 (single isomer, unassigned) [Example 44, Trans-3-(3-([1,1′-biphenyl]-3-yl)-1H-pyrazol-5-yl)-4-ethylpyrrolidine-1-carbonitrile] | 1000 to 10000 |
| N#Cc1cccc(-c2ccc3oc([C@@H]4CCCN4C#N)nc3c2)c1F [Example 137, (S)-2-(5-(3-Cyano-2-fluorophenyl)-benzo[d]oxazol-2-yl)pyrrolidine-1-carbonitrile] | 1000 to 10000 |
